From patent US8101389B2, “Bacterial glutamine synthetases and methods of use” (Athenix Corp, priority 2006, dated 2012)

How the values were obtained:
[1] = system: ags1 glutamine synthetase enzyme; test: Enzymatic activity of purified 6Xhis-tagged glutamine synthetases with and without glufosinate; format: biochemical, Serratia marcescens; conditions: 100 uM glufosinate
Description: (§1) ags1m1 (pAX3421) and ags1m2 (pAX3422) were subcloned into E. coli expression vector pRSF1B (Invitrogen) so as to create an N-terminus encoding a 6Xhis tag, purified and characterized kinetically.

[2] = target: Serratia marcescens glutamine synthetase AGS1 variant AGS1m1 (pAX3421), V39I, V214M, SEQ ID NO:4 (Serratia marcescens, UniProt A0A0F6KS08, V214M/V39I); test: enzymatic assay of purified 6Xhis AGS1m1 with glufosinate; format: biochemical; conditions: 100 uM glufosinate
Serratia marcescens glutamine synthetase AGS1 variant AGS1m1 (pAX3421), V39I, V214M, SEQ ID NO:4, sequence (A0A0F6KS08 whole entry V39I/V214M): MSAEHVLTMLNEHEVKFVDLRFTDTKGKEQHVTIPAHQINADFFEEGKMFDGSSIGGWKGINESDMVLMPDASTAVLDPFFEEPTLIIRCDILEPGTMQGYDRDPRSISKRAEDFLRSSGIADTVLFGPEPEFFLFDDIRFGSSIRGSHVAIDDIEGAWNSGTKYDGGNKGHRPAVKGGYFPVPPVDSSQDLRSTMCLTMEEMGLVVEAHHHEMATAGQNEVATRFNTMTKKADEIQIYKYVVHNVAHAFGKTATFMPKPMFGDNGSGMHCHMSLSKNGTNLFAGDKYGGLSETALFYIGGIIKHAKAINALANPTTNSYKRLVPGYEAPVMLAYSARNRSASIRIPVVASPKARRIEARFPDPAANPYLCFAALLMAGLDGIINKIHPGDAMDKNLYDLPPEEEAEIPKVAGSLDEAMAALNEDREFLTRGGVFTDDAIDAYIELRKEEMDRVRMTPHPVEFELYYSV
Description: as §1

[3] = system: E. coli cells with AGS1 variant AGS1m2 (pAX3422), F81S, P185S, G218S, I303N, SEQ ID NO:6; test: growth of E. coli on herbicide plates, ags1m2; format: cell-based; conditions: 200 mM glufosinate
Procedure: Mutants of the bacterial glutamine synthetase gene ags1 (SEQ ID NO:1) were created by error-prone mutagenesis using the GENEMORPH® Random Mutagenesis kit, and also using oligo-directed mutagenesis as known in the art. However, many methods are available for creating libraries of mutants. The resulting mutants were cloned into a pUC19 vector, electroporated into either XL-1 or DH5 alpha E. coli cells, and selected for growth on M63+ agar media containing antibiotic and 2, 10, or 20 mM glufosinate. Twenty-two clones were identified as growing on 20 mM glufosinate, and picked for further analysis.
ags1m2 was mutagenized by error-prone mutagenesis using GENEMORPH® II Random Mutagenesis kit (Stratagene) according to manufacturer's instructions. Mutagenized PCR product was digested with Sac I and Hind III, and ligated into a pUC vector, similarly digested with Sac I and Hind III. Ligations were transformed into E. coli cells, and plated onto M63+ plates containing antibiotic, and 125 mM glufosinate. Clones growing on 125 mM glufosinate plates were retested on 200 mM glufosinate plates, and compared to similar platings of ags1m1 and ags1m2. […] The DNA sequence of the ags open reading frame in pAX3439 was sequenced, and the gene designated as ags1m16. The DNA sequence of ags1m16 is represented herein as SEQ ID NO:31, and the amino acid sequence is represented herein as SEQ ID NO:32. […]

[4] = target: T1, Serratia marcescens ATX 20345 glutamine synthetase AGS1, wild type, SEQ ID NO:2 (Serratia marcescens, UniProt A0A0F6KS08); test: enzymatic assay, kinetics of wild-type AGS1; format: biochemical
T1 construct: gene cloned as pAX685; dodecamer from known biology
T1 sequence (A0A0F6KS08 entry or part of it): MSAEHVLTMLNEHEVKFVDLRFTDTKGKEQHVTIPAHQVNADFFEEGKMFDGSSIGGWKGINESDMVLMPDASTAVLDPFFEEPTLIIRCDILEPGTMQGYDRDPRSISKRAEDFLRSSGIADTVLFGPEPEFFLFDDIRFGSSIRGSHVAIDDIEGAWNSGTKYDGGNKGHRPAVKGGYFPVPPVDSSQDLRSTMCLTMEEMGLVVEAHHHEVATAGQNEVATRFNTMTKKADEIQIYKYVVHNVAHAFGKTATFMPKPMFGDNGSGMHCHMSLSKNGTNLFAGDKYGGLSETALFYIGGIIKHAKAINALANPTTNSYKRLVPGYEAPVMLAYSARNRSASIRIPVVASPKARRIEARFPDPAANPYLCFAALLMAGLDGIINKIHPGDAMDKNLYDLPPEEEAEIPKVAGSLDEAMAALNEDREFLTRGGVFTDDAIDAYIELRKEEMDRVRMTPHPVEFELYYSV
Description: as §1
ags1m21 (SEQ ID NO:41) encodes the AGS1m21 protein (SEQ ID NO:42). AGS1m21 is a variant of AGS1 that contains a similar amino acid change identified in other variants (V214M), as well as two novel mutations (N160S and G167R). This enzyme was expressed in E. coli, purified, and the kinetic values Km(glutamate) and Ki(glufosinate) of the variant measured by enzymatic assay.
The unmodified enzyme (AGS1) was compared to AGS1(AD-) and AGS1m17(AD-) by carrying out enzymatic assays on both enzymes following purification from E. coli. A glutamine synthetase enzyme from E. coli (GlnA) was also tested.

CP(=O)(O)CCC(N)C(=O)O (stereo not drawn) [glufosinate]
inhibition of wild type ags1 glutamine synthetase enzyme [1]: completely inhibited | activity in the presence of glufosinate [2]: showed activity | growth on 200 mM glufosinate plates [3]: did not grow | Ki [4]: 13 µM | inhibition by glufosinate ([4]; 100 uM glufosinate): completely inhibited | (Kcat*Ki)/Km ([4]; Table 5, Km glutamate, Ki glufosinate): 0.32
